Reference: PubChem BioAssay (NCI)
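Test compounds were applied to cells in 96-well plates for 48 hours at 5 doses. The concentration for 50% growth inhibition is given as GI50. Definition used: TGI = concentration required for complete inhibition of growth.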

Assays:
Assay in all cases: NCI tumour cell line growth inhibition, 48 h
[1] = test system: SK-MEL-2 melanoma
[2] = test system: SF-295 CNS
[3] = test system: NCI/ADR-RES ovarian
[4] = test system: OVCAR-8 ovarian
[5] = test system: RXF 393 renal
[6] = test system: SF-268 CNS
[7] = test system: HOP-92 NSCLC
[8] = test system: UACC-257 melanoma
[9] = test system: SK-OV-3 ovarian
[10] = test system: SK-MEL-28 melanoma

CN(C)c1ccc(C(O)C2=CC(=O)c3ccccc3C2=O)cc1 (stereo not given)
GI50 [1]: 2.88 µM
TGI [1]: 11.7 µM
GI50 [2]: 25.1 µM
TGI [2]: 93.3 µM
GI50 [3]: > 100 µM
TGI [3]: > 100 µM
GI50 [4]: 11.6 µM
TGI [4]: 32.8 µM
GI50 [5]: 4.29 µM
TGI [5]: 56.6 µM
GI50 [6]: > 100 µM
TGI [6]: > 100 µM
GI50 [7]: 1.56 µM
TGI [7]: 4.16 µM
GI50 [8]: 18.4 µM
TGI [8]: 41 µM
GI50 [9]: 3.07 µM
TGI [9]: 15.5 µM

COc1ccc(/C=C/C(=O)c2cc3c(N)c(C(=O)Nc4ccc(OC)cc4)sc3nc2C)cc1
GI50 [1]: 0.359 µM
TGI [1]: > 50 µM
GI50 [2]: 0.0645 µM
GI50 [3]: 0.185 µM
TGI [3]: 1.49 µM
GI50 [4]: 0.334 µM
TGI [4]: > 50 µM
GI50 [5]: 0.124 µM
GI50 [6]: 2.02 µM
TGI [6]: > 50 µM
GI50 [7]: 0.757 µM
TGI [7]: > 50 µM
GI50 [8]: > 23.4 µM
TGI [8]: > 50 µM
GI50 [9]: 0.215 µM
TGI [9]: > 50 µM
GI50 [10]: 0.4 µM
TGI [10]: > 50 µM

COc1ccc2c(c1)C(=O)c1c-2c(OCCN(C)C)nc2cc(OC)c(OC)cc12
GI50 [1]: > 100 µM
TGI [1]: > 100 µM
GI50 [2]: 0.0293 µM
TGI [2]: 0.21 µM
GI50 [3]: 4.58 µM
TGI [3]: 42.3 µM
GI50 [4]: 1.62 µM
TGI [4]: > 100 µM
GI50 [5]: 4.48 µM
TGI [5]: 18.6 µM
GI50 [6]: 0.731 µM
TGI [6]: 16.3 µM
GI50 [7]: 3.22 µM
TGI [7]: 19.6 µM
GI50 [8]: > 100 µM
TGI [8]: > 100 µM
GI50 [9]: 18.9 µM
TGI [9]: > 100 µM
GI50 [10]: 18.9 µM
TGI [10]: 35.4 µM

C[C@@H]1CCc2ncc(F)cc2[C@H]2CCCN2c2ccn3ncc(c3n2)C(=O)N1
GI50 [1]: > 100 µM
TGI [1]: > 100 µM
GI50 [2]: 60.6 µM
TGI [2]: > 100 µM
GI50 [3]: > 100 µM
TGI [3]: > 100 µM
GI50 [4]: > 100 µM
TGI [4]: > 100 µM
GI50 [5]: 16.7 µM
TGI [5]: 61 µM
GI50 [6]: > 100 µM
TGI [6]: > 100 µM
GI50 [7]: 47.8 µM
TGI [7]: > 100 µM
GI50 [8]: > 100 µM
TGI [8]: > 100 µM
GI50 [9]: 91.7 µM
TGI [9]: > 100 µM
GI50 [10]: > 100 µM
TGI [10]: > 100 µM

CC1(C)C2CCC13C(=O)C1OC3(C2)C2C(=O)c3c(ccc4c3ccc3ccccc34)C(=O)C12 (stereo not given)
GI50 [1]: > 100 µM
TGI [1]: > 100 µM
GI50 [2]: 13.2 µM
TGI [2]: 92.6 µM
GI50 [3]: > 46.7 µM
TGI [3]: > 94.8 µM
GI50 [4]: > 61.1 µM
TGI [4]: > 100 µM
GI50 [5]: 84 µM
TGI [5]: > 100 µM
GI50 [6]: 70.5 µM
TGI [6]: > 100 µM
GI50 [7]: > 100 µM
TGI [7]: > 100 µM
GI50 [8]: > 29.2 µM
TGI [8]: > 70.5 µM
GI50 [9]: > 100 µM
TGI [9]: > 100 µM
GI50 [10]: > 84.3 µM
TGI [10]: > 100 µM

CC(O)[C@H](NC(=O)N[C@@H](CC(N)=O)c1nc(N2CCNCC2)no1)C(=O)O (stereo not given in full)
GI50 [1]: > 100 µM
TGI [1]: > 100 µM
GI50 [2]: > 100 µM
TGI [2]: > 100 µM
GI50 [3]: > 100 µM
TGI [3]: > 100 µM
GI50 [4]: > 100 µM
TGI [4]: > 100 µM
GI50 [5]: > 100 µM
TGI [5]: > 100 µM
GI50 [6]: > 100 µM
TGI [6]: > 100 µM
GI50 [7]: > 100 µM
TGI [7]: > 100 µM
GI50 [8]: > 100 µM
TGI [8]: > 100 µM
GI50 [9]: > 100 µM
TGI [9]: > 100 µM
GI50 [10]: > 100 µM
TGI [10]: > 100 µM

COCC(C(=O)OC1C/C=C/C=C/C(=O)OC(C(C)C(O)C(C)CCC(OC(=O)C(C)N(C)C)C(C)C(OC(C)=O)C(C)/C=C/N(C)C=O)C/C=C/C(OC)CC(C)C/C=C(\C)C(OC)CCC(C)C(O)C1C)N(C)C (stereo not given)
GI50 [1]: < 0.0001 µM
TGI [1]: 0.00774 µM
GI50 [2]: < 0.0001 µM
TGI [2]: < 0.0001 µM
GI50 [3]: < 0.0001 µM
TGI [3]: 0.000552 µM
GI50 [4]: < 0.0001 µM
GI50 [5]: < 0.0001 µM
TGI [5]: 0.0177 µM
GI50 [6]: < 0.0001 µM
TGI [6]: 0.00161 µM
GI50 [7]: 0.00145 µM
TGI [7]: 0.024 µM
GI50 [8]: < 0.0001 µM
TGI [8]: > 1 µM
GI50 [9]: < 0.0001 µM
TGI [9]: 0.0164 µM
GI50 [10]: < 0.0001 µM
TGI [10]: 0.0358 µM

CCn1c(-c2nonc2N)nc2cnc(Oc3cccc(NC(=O)c4ccc(N(C)C)cc4)c3)cc21
GI50 [1]: > 25 µM
TGI [1]: > 25 µM
GI50 [2]: 12 µM
TGI [2]: > 25 µM
GI50 [3]: > 25 µM
TGI [3]: > 25 µM
GI50 [4]: > 25 µM
TGI [4]: > 25 µM
GI50 [5]: 16.9 µM
TGI [5]: > 25 µM
GI50 [6]: 2.48 µM
TGI [6]: > 25 µM
GI50 [7]: 0.00447 µM
TGI [7]: > 25 µM
GI50 [8]: > 25 µM
TGI [8]: > 25 µM
GI50 [9]: > 13.7 µM
TGI [9]: > 25 µM
GI50 [10]: > 25 µM
TGI [10]: > 25 µM

COc1cccc(-c2nc3sccn3c2-c2ccnc(NCCCNS(=O)(=O)c3ccccc3)c2)c1
GI50 [1]: 2.87 µM
TGI [1]: 8.85 µM
GI50 [2]: 3.18 µM
TGI [2]: 20.8 µM
GI50 [3]: 2.62 µM
TGI [3]: 8.7 µM
GI50 [4]: 2.99 µM
TGI [4]: > 100 µM
GI50 [5]: 5.79 µM
TGI [5]: > 100 µM
GI50 [6]: 3.46 µM
TGI [6]: > 100 µM
GI50 [7]: 0.885 µM
TGI [7]: > 100 µM
GI50 [8]: 3.57 µM
TGI [8]: > 100 µM
GI50 [9]: 5.43 µM
TGI [9]: > 100 µM
GI50 [10]: 3.59 µM
TGI [10]: > 100 µM

COc1ccc(C)cc1NC(=S)C#N
TGI [1]: > 100 µM
TGI [2]: > 100 µM
TGI [3]: > 100 µM
TGI [4]: > 100 µM
TGI [5]: > 100 µM
TGI [6]: > 100 µM
TGI [7]: > 100 µM
TGI [8]: > 100 µM
TGI [9]: > 100 µM
TGI [10]: > 100 µM

COc1ccc(-c2csc(Nc3cccc(-c4csc(C)n4)c3)n2)cc1
GI50 [1]: 4.7 µM
TGI [1]: > 27 µM
GI50 [2]: 0.68 µM
TGI [2]: > 11.5 µM
GI50 [3]: 0.534 µM
TGI [3]: 4.19 µM
GI50 [4]: 2.27 µM
TGI [4]: > 31.2 µM
GI50 [5]: 1.87 µM
TGI [5]: > 14.9 µM
GI50 [6]: 2.48 µM
TGI [6]: > 50 µM
GI50 [7]: 24.7 µM
TGI [7]: > 50 µM
GI50 [8]: 3.26 µM
TGI [8]: 19.7 µM
GI50 [9]: 2.17 µM
TGI [9]: > 50 µM
GI50 [10]: 1.98 µM
TGI [10]: > 12.1 µM

COc1ccc(C2NC(=S)NC3=C2CCOc2c3ccc3ccccc23)cc1 (stereo not given)
GI50 [1]: > 100 µM
TGI [1]: > 100 µM
GI50 [2]: 19.1 µM
TGI [2]: > 100 µM
GI50 [3]: 32.6 µM
TGI [3]: > 100 µM
GI50 [4]: 32.6 µM
TGI [4]: > 100 µM
GI50 [5]: 1.57 µM
TGI [5]: 48 µM
GI50 [6]: 6.73 µM
TGI [6]: > 100 µM
GI50 [7]: 77.1 µM
TGI [7]: > 100 µM
GI50 [8]: 16.4 µM
TGI [8]: > 100 µM
GI50 [9]: > 100 µM
TGI [9]: > 100 µM
GI50 [10]: > 100 µM
TGI [10]: > 100 µM

CCOC(=O)c1c(CN2CCN(C)CC2)nc2ccc(Cl)cc2c1-c1ccccc1
GI50 [1]: 12.9 µM
TGI [1]: 26.2 µM
GI50 [2]: 3.27 µM
TGI [2]: 9.95 µM
GI50 [3]: 5.35 µM
TGI [3]: 14.5 µM
GI50 [4]: 15.2 µM
TGI [4]: 29.6 µM
GI50 [5]: 5.33 µM
TGI [5]: 15.4 µM
GI50 [6]: 10.2 µM
TGI [6]: 23.5 µM
GI50 [7]: 6.64 µM
TGI [7]: 22.3 µM
GI50 [8]: 2.03 µM
TGI [8]: 3.98 µM
GI50 [9]: 12.8 µM
TGI [9]: 25.8 µM
GI50 [10]: 1.74 µM
TGI [10]: 3.19 µM
